Experimental data taken from patent US11365199B2, “Pyrazole compounds as modulators of FSHR and uses thereof” (Merck Patent GmbH, priority 2013, dated 2022).
Like-named read-outs stand apart in the source and are kept apart here.

Experiments:
[1] = target: T1, follicle-stimulating hormone (FSH) receptor (Rattus norvegicus, UniProt P20395); assay: Rat granulosa EC50 FSH (Assay B); format: cell-based; settings: for Emax at 30 µM: read-out: Assay B: percental effect (response) relative to the maximum response of the FSH standard
T1 construct: endogenous in cells; host or cells: primary rat granulosa cells
T1 sequence (P20395 18-692): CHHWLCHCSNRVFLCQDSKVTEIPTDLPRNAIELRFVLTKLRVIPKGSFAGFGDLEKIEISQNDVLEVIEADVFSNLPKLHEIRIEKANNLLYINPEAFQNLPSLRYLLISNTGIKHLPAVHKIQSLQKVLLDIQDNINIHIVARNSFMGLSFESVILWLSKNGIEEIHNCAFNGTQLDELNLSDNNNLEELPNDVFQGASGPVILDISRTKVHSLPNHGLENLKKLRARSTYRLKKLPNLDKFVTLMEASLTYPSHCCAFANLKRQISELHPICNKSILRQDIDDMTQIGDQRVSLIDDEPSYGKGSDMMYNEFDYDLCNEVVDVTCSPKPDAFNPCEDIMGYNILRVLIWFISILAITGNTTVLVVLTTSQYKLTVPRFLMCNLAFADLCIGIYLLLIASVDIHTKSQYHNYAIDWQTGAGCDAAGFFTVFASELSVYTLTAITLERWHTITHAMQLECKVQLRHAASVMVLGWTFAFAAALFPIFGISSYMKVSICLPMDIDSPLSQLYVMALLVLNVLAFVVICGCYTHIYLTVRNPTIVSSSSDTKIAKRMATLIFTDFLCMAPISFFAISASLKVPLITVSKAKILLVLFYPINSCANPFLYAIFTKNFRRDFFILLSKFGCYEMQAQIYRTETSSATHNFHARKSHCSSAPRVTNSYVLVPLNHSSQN
Experimental: Rat Granulosa EC50 FSH (Assay B)
The assay was performed pursuant to the teaching of Yanofsky et al. (2006) Allosteric activation of the follicle-stimulating hormone (FSH) receptor by selective, nonpeptide agonists (JBC 281(19): 13226-13233, which is incorporated by reference in the disclosure of the invention).

[2] = target: T2, FSHR (Homo sapiens, UniProt P23945); assay: EC50 of cyclic AMP production in CHO FSHR cells + EC20 FSH (Assay A); format: cell-based
T2 construct: expressed in transfected cells; host or cells: CHO (Cho-FSHR-LUC-1-1-43)
T2 sequence (P23945 18-695): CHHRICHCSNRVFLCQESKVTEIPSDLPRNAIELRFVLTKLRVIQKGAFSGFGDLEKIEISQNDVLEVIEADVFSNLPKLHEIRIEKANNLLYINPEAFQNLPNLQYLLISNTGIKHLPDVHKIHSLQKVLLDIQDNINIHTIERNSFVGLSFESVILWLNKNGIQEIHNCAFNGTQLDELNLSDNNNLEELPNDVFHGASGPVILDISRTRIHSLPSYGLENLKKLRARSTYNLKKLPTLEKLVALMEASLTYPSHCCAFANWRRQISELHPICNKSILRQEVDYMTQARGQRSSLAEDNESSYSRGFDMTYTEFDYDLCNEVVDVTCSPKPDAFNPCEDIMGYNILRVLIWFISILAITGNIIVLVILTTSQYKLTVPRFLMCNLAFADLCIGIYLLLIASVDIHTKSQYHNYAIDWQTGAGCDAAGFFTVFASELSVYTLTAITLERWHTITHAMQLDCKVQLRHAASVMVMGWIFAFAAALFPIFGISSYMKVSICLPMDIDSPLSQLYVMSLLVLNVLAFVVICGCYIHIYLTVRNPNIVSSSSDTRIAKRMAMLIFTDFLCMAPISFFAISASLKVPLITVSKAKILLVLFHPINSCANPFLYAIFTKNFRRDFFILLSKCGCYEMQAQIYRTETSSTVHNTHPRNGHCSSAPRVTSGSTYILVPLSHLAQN
Outline: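 cAMP HTRF read-out (665 nm/620 nm ratio) after 1 h at 37° C of Cho-FSHR-LUC cells treated with serially diluted test compound plus EC20 FSH ([…]) and IBMX (final 200 μM). Responses given as percent of maximal FSH-standard effect.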

[3] = rat granulosa cells, read-out: Assay B: Rat granulosa EC50 FSH
[4] = CHO FSHR cells + EC20 FSH, cAMP HTRF, read-out: Assay A: EC50 of cyclic AMP production

Row | SMILES | EC50 [1, 3] [µM] | EC50 [2, 4] [µM] | Emax at 30 µM [1] [%] | EC50 [1] [µM] | EC50 [2] [µM]
1 | COc1cc2c(cc1C#N)-c1c(c(C(=O)N(C)C(C)(C)C)nn1-c1ccsc1)CO2 [Compound 12, 8-Cyano-7-methoxy-1-thiophen-3-yl-1,4-dihydro-chromeno[4,3-c]pyrazole-3-carboxylic Acid tert-butyl-methyl-amide] | 1 to 5 | < 0.1 | – | – | –
2 | COCOCCn1cc(-c2cc3c(cc2OC)OCc2c(C(=O)N4CCOCC4(C)C)nn(-c4ccsc4)c2-3)cn1 [Compound 205, (3,3-Dimethyl-morpholin-4-yl)-{7-methoxy-8-[1-(2-methoxymethoxy-ethyl)-1H-pyrazol-4-yl]-1-thiophen-3-yl-1,4-dihydro-chromeno[4,3-c]pyrazol-3-yl}-methanone] | < 0.1 | < 0.1 | – | – | –
3 | CCn1cc(-c2cc3c(cc2OC)OCc2c(C(=O)N4CCOCC4(C)C)nn(-c4ccsc4)c2-3)cn1 [Compound 210, (3,3-Dimethyl-morpholin-4-yl)-[8-(1-ethyl-1H-pyrazol-4-yl)-7-methoxy-1-thiophen-3-yl-1,4-dihydro-chromeno[4,3-c]pyrazol-3-yl]-methanone] | > 5 | < 0.1 | – | – | –
4 | COc1cc2c(cc1C=C(C)C)-c1c(c(C(=O)NCCCN3CCOC3=O)nn1-c1ccsc1)CO2 [Compound 9, 7-Methoxy-8-(2-methyl-propenyl)-1-thiophen-3-yl-1,4-dihydro-chromeno[4,3-c]pyrazole-3-carboxylic acid [3-(2-oxo-oxazolidin-3-yl)-propyl]-amide] | – | 1 to 5 | 40.5 | – | –
5 | COc1cc2c(cc1-c1nc[nH]n1)-c1c(c(C(=O)N3CCOCC3(C)C)nn1-c1ccsc1)CO2 [Compound 161, (3,3-Dimethyl-morpholin-4-yl)-[7-methoxy-1-thiophen-3-yl-8-(5H-[1,2,4]triazol-3-yl)-1,4-dihydro-chromeno[4,3-c]pyrazol-3-yl]-methanone] | < 0.1 | < 0.1 | – | – | –
6 | COc1cc2c(cc1C1=NC([Si](C)(C)C)N=N1)-c1c(c(C(=O)N3CCOCC3(C)C)nn1-c1ccsc1)CO2 (stereo not shown) [Compound 139, (3,3-Dimethyl-morpholin-4-yl)-[7-methoxy-1-thiophen-3-yl-8-(5-trimethylsilanyl-5H-[1,2,4]triazol-3-yl)-1,4-dihydro-chromeno[4,3-c]pyrazol-3-yl]-methanone] | – | – | – | 1 to 5 | < 0.1
7 | [2H]C([2H])([2H])N(CCN(C(=O)c1nn(-c2ccsc2)c2c1COc1cc(OC)c(CC(C)C)cc1-2)C([2H])([2H])[2H])C(C)=O [Compound 82] | 1 to 5 | < 0.1 | – | – | –
8 | COc1cc2c(cc1C=C(C)C)-c1c(c(C(=O)N3CCCC(C(=O)O)CC3)nn1-c1ccsc1)CO2 (stereo not shown) [Compound 18, 1-[7-Methoxy-8-(2-methyl-propenyl)-1-thiophen-3-yl-1,4-dihydro-chromeno[4,3-c]pyrazole-3-carbonyl]-azepane-4-carboxylic acid] | – | 1 to 5 | 30 | – | –
9 | COc1cc2c(cc1C1CCOC1)-c1c(c(C(=O)N(C)C(C)(C)C)nn1-c1ccsc1)CO2 (stereo not shown) [Compound 194, 7-Methoxy-8-(tetrahydro-furan-3-yl)-1-thiophen-3-yl-1,4-dihydro-chromeno[4,3-c]pyrazole-3-carboxylic Acid tert-butyl-methyl-amide] | 0.1 to 1 | < 0.1 | – | – | –
10 | [2H]C([2H])([2H])N(C(=O)c1nn(-c2ccsc2)c2c1COc1cc(OC)c(-c3ccn(C)n3)cc1-2)C1(C)COC1 [Compound 116] | 1 to 5 | < 0.1 | – | – | –
11 | COc1cc2c(cc1-c1cn(C)nn1)-c1c(c(C(=O)N(C)C(C)(C)C)nn1-c1ccsc1)CO2 [Compound 153, 7-Methoxy-8-(1-methyl-1H-[1,2,3]triazol-4-yl)-1-thiophen-3-yl-1,4-dihydro-chromeno[4,3-c]pyrazole-3-carboxylic acid tert-butyl-methyl-amide] | < 0.1 | < 0.1 | – | – | –
12 | COc1cc2c(cc1-c1cnn(CC3OCCO3)c1)-c1c(c(C(=O)N3CCOCC3(C)C)nn1-c1ccsc1)CO2 [Compound 209, (3,3-Dimethyl-morpholin-4-yl)-[8-(1-[1,3]dioxolan-2-ylmethyl-1H-pyrazol-4-yl)-7-methoxy-1-thiophen-3-yl-1,4-dihydro-chromeno[4,3-c]pyrazol-3-yl]-methanone] | < 0.1 | < 0.1 | – | – | –
13 | [2H]C([2H])([2H])OC1(CN(C(=O)c2nn(-c3ccsc3)c3c2COc2cc(OC)c(-c4ccn(C)c4)cc2-3)C([2H])([2H])[2H])COC1 [Compound 168] | 0.1 to 1 | < 0.1 | – | – | –
14 | COc1cc2c(cc1CC(C)C)-c1c(c(C(=O)N(C)C(C)(C)C)nn1-c1ccsc1)CO2 [Compound 5, 8-Isobutyl-7-methoxy-1-thiophen-3-yl-1,4-dihydro-chromeno[4,3-c]pyrazole-3-carboxylic Acid tert-butyl-methyl-amide] | 1 to 5 | < 0.1 | – | – | –
15 | COc1cc2c(cc1CNC(C)=O)-c1c(c(C(=O)N3CCOCC3(C)C)nn1-c1ccsc1)CO2 [Compound 175, N-[3-(3,3-Dimethyl-morpholine-4-carbonyl)-7-methoxy-1-thiophen-3-yl-1,4-dihydro-chromeno[4,3-c]pyrazol-8-ylmethyl]-acetamide] | > 5 | 0.1 to 1 | – | – | –
16 | COc1cc2c(cc1-c1ccn(C)n1)-c1c(c(C(=O)N(C)C(C)(C)C)nn1-c1ccsc1)CO2 [Compound 63, 7-Methoxy-8-(1-methyl-1H-pyrazol-3-yl)-1-thiophen-3-yl-1,4-dihydro-chromeno[4,3-c]pyrazole-3-carboxylic acid tert-butyl-methyl-amide] | 0.1 to 1 | < 0.1 | – | – | –
17 | [2H]C([2H])([2H])OCC1(N(C(=O)c2nn(-c3ccsc3)c3c2COc2cc(OC)c(S(=O)(=O)C(C)C)cc2-3)C([2H])([2H])[2H])COC1 [Compound 200] | > 5 | < 0.1 | – | – | –
18 | COc1cc2c(cc1-c1ccn(C)n1)-c1c(c(C(=O)N3CCN(C)CC3(C)C)nn1-c1ccsc1)CO2 [Compound 159, [7-Methoxy-8-(1-methyl-1H-pyrazol-3-yl)-1-thiophen-3-yl-1,4-dihydro-chromeno[4,3-c]pyrazol-3-yl]-(2,2,4-trimethyl-piperazin-1-yl)-methanone] | < 0.1 | < 0.1 | – | – | –
19 | [2H]C([2H])([2H])OCC1(N(C(=O)c2nn(-c3ccsc3)c3c2COc2cc(OC)c(-c4ccnn4C)cc2-3)C([2H])([2H])[2H])COC1 [Compound 119] | 1 to 5 | < 0.1 | – | – | –
20 | COc1cc2c(cc1-c1cnn(C3CC3)c1)-c1c(c(C(=O)N3CCOCC3(C)C)nn1-c1ccsc1)CO2 [Compound 215] | 0.1 to 1 | < 0.1 | – | – | –
21 | COc1cc2c(cc1C=C(C)C)-c1c(c(C(=O)N(C)CCN3CCOC3=O)nn1-c1ccsc1)CO2 [Compound 23, 7-Methoxy-8-(2-methyl-propenyl)-1-thiophen-3-yl-1,4-dihydro-chromeno[4,3-c]pyrazole-3-carboxylic Acid methyl-[2-(2-oxo-oxazolidin-3-yl)-ethyl]-amide] | < 0.1 | < 0.1 | – | – | –
22 | COc1cc2c(cc1SCC(C)C)-c1c(c(C(=O)N3CCOCC3(C)C)nn1-c1ccsc1)CO2 [Compound 97, (3,3-Dimethyl-morpholin-4-yl)-(8-isobutylsulfanyl-7-methoxy-1-thiophen-3-yl-1,4-dihydro-chromeno[4,3-c]pyrazol-3-yl)-methanone] | 0.1 to 1 | 0.1 to 1 | – | – | –
23 | [2H]C([2H])([2H])N(C(=O)c1nn(-c2ccsc2)c2c1COc1cc(OC)c(-c3ccn(C)c3)cc1-2)C1CCOC1 (stereo not shown) [Compound 146] | 0.1 to 1 | 0.1 to 1 | – | – | –
